Laboratory results as given in PubChem BioAssay AID330 (DTP/NCI, 2004).
Where “and” joins values, the source holds several entries; their conditions need not be identical. Identical values can stand only once. Inconclusive results and toxic doses are left out. The calls were made as follows: active = survival T/C of 150% or more; inactive = T/C below 125% in these data.

Test system: P388 leukemia ip, CD2F1 mice, survival T/C
Assay: NCI In Vivo Anticancer Drug Screen. Data for tumor model P388 Leukemia (intraperitoneal) in CD2F1 (CDF1) mice
Conditions: endpoint: median survival time, higher = longer survival
Outline: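 Mice carrying the transplanted tumor received test compound or vehicle. Survival was recorded in each group, and the value is the treated-group measurement divided by that of the vehicle-treated control group.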

[1] = dose: 12.5 mg/kg/injection, schedule: Q01DX009 (ip), vehicle: Klucel (hydroxypropylcellulose) (HPC)
[2] = dose: 60.0 mg/kg/injection, schedule: Q01DX005 (ip), vehicle: Klucel (hydroxypropylcellulose) (HPC)
[3] = dose: 120.0 mg/kg/injection, schedule: Q01DX005 (ip), vehicle: Klucel (hydroxypropylcellulose) (HPC)
[4] = dose: 240.0 mg/kg/injection, schedule: Q01DX005 (ip), vehicle: Klucel (hydroxypropylcellulose) (HPC)
[5] = dose: 100.0 mg/kg/injection, schedule: Q01DX009 (ip), vehicle: saline with Tween-80
[6] = dose: 200.0 mg/kg/injection, schedule: Q01DX009 (ip), vehicle: saline with Tween-80
[7] = dose: 12.5 mg/kg/injection, schedule: Q01DX005 (ip), vehicle: Klucel (hydroxypropylcellulose) (HPC)
[8] = dose: 25.0 mg/kg/injection, schedule: Q01DX005 (ip), vehicle: Klucel (hydroxypropylcellulose) (HPC)
[9] = dose: 50.0 mg/kg/injection, schedule: Q01DX005 (ip), vehicle: Klucel (hydroxypropylcellulose) (HPC)
[10] = dose: 100.0 mg/kg/injection, schedule: Q01DX005 (ip), vehicle: Klucel (hydroxypropylcellulose) (HPC)
[11] = dose: 200.0 mg/kg/injection, schedule: Q01DX005 (ip), vehicle: Klucel (hydroxypropylcellulose) (HPC)
[12] = dose: 60.0 mg/kg/injection, schedule: Q01DX005 (ip), vehicle: saline with Tween-80
[13] = dose: 120.0 mg/kg/injection, schedule: Q01DX005 (ip), vehicle: saline with Tween-80
[14] = dose: 50.0 mg/kg/injection, schedule: Q01DX009 (ip), vehicle: saline
[15] = dose: 100.0 mg/kg/injection, schedule: Q01DX009 (ip), vehicle: saline
[16] = dose: 200.0 mg/kg/injection, schedule: Q01DX009 (ip), vehicle: saline
[17] = dose: 50.0 mg/kg/injection, schedule: Q01DX009 (ip), vehicle: saline with Tween-80

Measured: T/C

CCOC(=O)Nc1cc2c(c(N)n1)N=C(c1ccc(Cl)cc1)CN2
inactive: dose: 1.5 mg/kg/injection, schedule: Q01DX009 (ip), vehicle: Klucel (hydroxypropylcellulose) (HPC) 92 % of control | dose: 3.0 mg/kg/injection, schedule: Q01DX009 (ip), vehicle: Klucel (hydroxypropylcellulose) (HPC) 111 % of control | dose: 12.0 mg/kg/injection, schedule: Q01DX009 (ip), vehicle: Klucel (hydroxypropylcellulose) (HPC) 95 % of control | [1] 86 % of control | dose: 50.0 mg/kg/injection, schedule: Q04DX003 (ip), vehicle: Klucel (hydroxypropylcellulose) (HPC) 101 % of control

CCC1SC2=NCCN2C1(O)c1ccc(Cl)cc1 (stereo unspecified)
inactive: [2] 96 % of control | [3] 95 % of control | [4] 89 % of control

CCOC1(C)CC(c2cc(OC)c(OC)c(OC)c2)c2cc3c(cc2O1)OCO3 (stereo unspecified)
inactive: [2] 96 % of control | [3] 93 % of control | [4] 92 % of control

Nc1ccc(-c2ccc(N)cc2)cc1
inactive: [5] 90 % of control | [6] 100 % of control | dose: 400.0 mg/kg/injection, schedule: Q01DX009 (ip), vehicle: saline with Tween-80 95 % of control

CC[CH2][Pb]([CH2]CC)([CH2]CC)[O]C(=O)C(F)(F)F
inactive: dose: 3.13 mg/kg/injection, schedule: Q01DX009 (ip), vehicle: saline 117 % of control

CC1(C)Nc2cc3c(cc2-n2cccc21)oc1ccccc13
inactive: [7] 111 % of control | [8] 99 % of control | dose: 50.0 mg/kg/injection, schedule: Q01DX005 (ip), vehicle: DMSO 100 % of control | [9] 105 % of control | dose: 100.0 mg/kg/injection, schedule: Q01DX005 (ip), vehicle: DMSO 95 % of control | [10] 101 % of control | dose: 200.0 mg/kg/injection, schedule: Q01DX005 (ip), vehicle: DMSO 96 % of control | [11] 111 % of control | dose: 400.0 mg/kg/injection, schedule: Q01DX005 (ip), vehicle: DMSO 100 % of control | dose: 800.0 mg/kg/injection, schedule: Q01DX005 (ip), vehicle: DMSO 98 % of control

N#CC(c1ccccc1)c1ccc2ccccc2n1 (stereo unspecified)
inactive: [12] 92 % of control | [13] 86 % of control

CSC(=NS(=O)(=O)c1ccc(C)cc1)SC
inactive: [14] 109 % of control | [15] 106 % of control | [16] 113 % of control

CCCCCC1=CC2C(=O)NC(=O)NC12 (stereo unspecified)
inactive: [7] 98 % of control | [8] 97 % of control | [9] 105 % of control | [10] 96 % of control

CC(C)(C)OC(=O)NCC(=O)NC(CSC(c1ccccc1)c1ccccc1)C(=O)NCC(=O)O (stereo unspecified)
inactive: [9] 105 % of control | [10] 99 % of control

Cc1nsc2[nH]c(=O)n(Nc3ccc(O)cc3)c(=O)c12
active: dose: 100.0 mg/kg/injection, schedule: Q01DX005 (ip), vehicle: saline with Tween-80 174 % of control and 178 % of control | dose: 200.0 mg/kg/injection, schedule: Q01DX005 (ip), vehicle: saline with Tween-80 180 % of control

O=C(C[n+]1ccc2ccccc2c1)c1ccc(-c2ccccc2)cc1
inactive: [1] 118 % of control | dose: 25.0 mg/kg/injection, schedule: Q01DX009 (ip), vehicle: Klucel (hydroxypropylcellulose) (HPC) 98 % of control and 116 % of control | dose: 50.0 mg/kg/injection, schedule: Q01DX009 (ip), vehicle: Klucel (hydroxypropylcellulose) (HPC) 101 % of control and 115 % of control | dose: 100.0 mg/kg/injection, schedule: Q01DX009 (ip), vehicle: Klucel (hydroxypropylcellulose) (HPC) 101 % of control and 122 % of control

CC1OC(O[C@H]2/C=C/C=C/C=C/C=C/C=C/C=C/C=C/[C@H](C)[C@@H](O)[C@@H](C)[C@H](C)OC(=O)C[C@H](O)C[C@H](O)CC[C@@H](O)[C@H](O)C[C@H](O)C[C@]3(O)C[C@H](O)[C@@H](C(=O)O)[C@H](C2)O3)C(O)C(N)C1O (stereo partly specified)
inactive: dose: 1.0 mg/kg/injection, schedule: Q01DX009 (ip), vehicle: saline 90 % of control and 95 % of control | dose: 2.0 mg/kg/injection, schedule: Q01DX009 (ip), vehicle: saline 119 % of control and 90 % of control | dose: 4.0 mg/kg/injection, schedule: Q01DX009 (ip), vehicle: saline 98 % of control and 102 % of control and 105 % of control | dose: 8.0 mg/kg/injection, schedule: Q01DX009 (ip), vehicle: saline 100 % of control and 106 % of control and 87 % of control | dose: 16.0 mg/kg/injection, schedule: Q01DX009 (ip), vehicle: saline 122 % of control and 94 % of control

O=[N+]([O-])c1cc2[nH]cnc2c([N+](=O)[O-])c1NCc1ccccc1
inactive: dose: 100.0 mg/kg/injection, schedule: Q04DX002 (ip), vehicle: saline with Tween-80 98 % of control | dose: 200.0 mg/kg/injection, schedule: Q04DX002 (ip), vehicle: saline with Tween-80 97 % of control

CC(C)(C)CC(C)(C)c1ccc(OCc2cccc(Cl)c2)cc1
inactive: [17] 97 % of control | [5] 96 % of control | [6] 95 % of control

CN(C)c1ccc(Cc2ccc(N(C)C)c(C(O)(c3ccccc3)c3ccccc3)c2)cc1C(O)(c1ccccc1)c1ccccc1
inactive: dose: 1.56 mg/kg/injection, schedule: Q01DX005 (ip), vehicle: saline 100 % of control | dose: 3.13 mg/kg/injection, schedule: Q01DX005 (ip), vehicle: saline 97 % of control | dose: 6.25 mg/kg/injection, schedule: Q01DX005 (ip), vehicle: saline 90 % of control

CN(C)P(=S)(N(C)C)N1CCOCC1
inactive: dose: 50.0 mg/kg/injection, schedule: Q04DX003 (ip), vehicle: saline with Tween-80 104 % of control | dose: 100.0 mg/kg/injection, schedule: Q04DX003 (ip), vehicle: saline with Tween-80 88 % of control | dose: 200.0 mg/kg/injection, schedule: Q04DX003 (ip), vehicle: saline with Tween-80 96 % of control

COc1ccc2nc(CC(C)C)c3c(c2c1)-c1ccccc1C3=O
inactive: [9] 91 % of control | [10] 87 % of control | [11] 89 % of control

Oc1ccc([C@H]2Oc3c(c(O)cc4c3C3c5c(O)cc(O)cc5OC(c5ccc(O)cc5)(O4)[C@H]3O)CC2O)cc1 (stereo partly specified)
inactive: dose: 1.0 mg/kg/injection, schedule: Q01DX005 (ip), vehicle: Klucel (hydroxypropylcellulose) (HPC) 103 % of control | dose: 2.0 mg/kg/injection, schedule: Q01DX005 (ip), vehicle: Klucel (hydroxypropylcellulose) (HPC) 103 % of control | dose: 4.0 mg/kg/injection, schedule: Q01DX005 (ip), vehicle: Klucel (hydroxypropylcellulose) (HPC) 110 % of control | dose: 8.0 mg/kg/injection, schedule: Q01DX005 (ip), vehicle: Klucel (hydroxypropylcellulose) (HPC) 103 % of control

O=C(O)c1cc2cccc(OCc3ccc(Cl)cc3Cl)c2cc1O
inactive: dose: 100.0 mg/kg/injection, schedule: Q04DX002 (ip), vehicle: Klucel (hydroxypropylcellulose) (HPC) 115 % of control | dose: 200.0 mg/kg/injection, schedule: Q04DX002 (ip), vehicle: Klucel (hydroxypropylcellulose) (HPC) 106 % of control | dose: 400.0 mg/kg/injection, schedule: Q04DX002 (ip), vehicle: Klucel (hydroxypropylcellulose) (HPC) 103 % of control

CCN(CC)Cc1ccc(N)cc1O
inactive: [14] 106 % of control and 107 % of control | [15] 97 % of control and 98 % of control | [16] 99 % of control and 97 % of control

O=C1OC2CS(=O)CC2O1 (stereo unspecified)
inactive: [17] 104 % of control | [14] 102 % of control | [5] 101 % of control | [15] 101 % of control | [6] 95 % of control | [16] 99 % of control

COC(=O)C12CCCC1(C(=O)OC)N2N1C(=O)c2ccccc2C1=O (stereo unspecified)
inactive: [9] 100 % of control | [10] 100 % of control | [11] 105 % of control

CCC1=C(C)CCN(C)C1Cc1ccc(OC)cc1 (stereo unspecified)
inactive: dose: 15.0 mg/kg/injection, schedule: Q01DX005 (ip), vehicle: Klucel (hydroxypropylcellulose) (HPC) 106 % of control | dose: 30.0 mg/kg/injection, schedule: Q01DX005 (ip), vehicle: Klucel (hydroxypropylcellulose) (HPC) 98 % of control | [2] 100 % of control and 102 % of control

COc1ccc(CCNC(=O)Cc2ccc(Cl)cc2)cc1OC
inactive: [12] 99 % of control | [13] 97 % of control | dose: 240.0 mg/kg/injection, schedule: Q01DX005 (ip), vehicle: saline with Tween-80 92 % of control
